Measured values from patent US6359054B1, “Polynucleotide compositions for intramuscular administration” (priority 1994, dated 2002).
Values joined by “and” are separate entries in the source; they are usually repeats but may differ in a detail not shown here. Equal entries are not always repeated. {C11P} = undecylphosphate group; {Acr} = acridine conjugate

Experiments:
HSV-1 [1] = test system: HSV-1; parameters: species or system mice; settings: mouse, in vivo
HSV-1 [2] = assay: HSV-1 infectivity of medium of infected BHK cells; assay type: cell-based, Herpes Simplex Virus 1; settings: oligonucleotide 3.0 μM

Free Anti-HSV: 12-chain oligonucleotide CGTTCCTCCTGU, 5′ undecylphosphate and 3′ acridine modified, complementary to HSV-1 splicing site (5' {C11P}, 3' {Acr}, sugars by position and backbone not given here)
% Survival (HSV-1 [1]): 7.0%
Survived animals/Amount of Animals in a group (HSV-1 [1]): 1/10 and 0/10
HSV-1 infectious titre n = 7 (HSV-1 [2]): 50(±14) × 10^2 CPE50/ml
